Assay results reported in US11534457B2, “Use of dextran sulfate” (priority 2017, dated 2022).

Experiments:
[1] = system: LPS system [PBMC and HUVEC+LPS (TLR4 ligand)]; assay: BioMAP LPS system; assay type: cell-based, Human
Source text: (§1) In this study LMW-DS was characterized by profiling in the BioMAP® Diversity PLUS panel. The BioMAP® panel consists of human primary cell-based systems designed to model different aspects of the human body in an in vitro format. The 12 systems in the BioMAP® Diversity PLUS panel (Table 32) allow test agent characterization in an unbiased way across a broad set of systems modeling various human disease states. The BioMA®P systems are constructed with one or more primary cell types from healthy human donors, with stimuli, such as cytokines or growth factors, added to capture relevant signaling networks that naturally occur in human tissue or pathological conditions. […]
(§2) Systems are derived from either single cell types or co-culture systems. […] Test agents prepared in either DMSO (small molecules; final concentration 0.1%) or PBS (biologics) are added at the indicated concentrations 1-hr before stimulation, and remain in culture for 24-hrs or as otherwise indicated (48-hrs, MyoF system; 72-hrs, BT system (soluble readouts); 168-hrs, BT system (secreted IgG)). […] Soluble factors from supernatants are quantified using either HTRF® detection, bead-based multiplex immunoassay or capture ELISA. Overt adverse effects of test agents on cell proliferation and viability (cytotoxicity) are detected by sulforhodamine B (SRB) staining, for adherent cells, and alamarBlue® reduction for cells in suspension. […]

[2] = system: KF3CT system [keratinocytes and HDFn+(IL-1β, TNFα, IFNγ and TGFβ)]; assay: BioMAP KF3CT system; assay type: cell-based, Human
Source text: as §1, §2

Substance: low molecular weight dextran sulfate [LMW-DS]
- Decreased biomarker activity [1]: sTNFα
- Increased biomarker activity [1]: IL-8
- Decreased biomarker activity [2]: MCP-1
- Increased biomarker activity [2]: IL-8
